# From US10696655B2, “Therapeutic compounds and uses thereof” (GENENTECH, INC., priority 2017, dated 2020)
# Legend:
# [1] = biological target: CBP (Homo sapiens (Human), UniProt Q92793); test: CBP TR-FRET binding assay; settings: His/Flag tagged CBP 4 nM, biotin-ligand 60 nM; read-out: CBP HTRF IC50;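 note: displacement of a biotinylated small-molecule ligand from purified recombinant CBP read by TR-FRET, DMSO-only wells as control, IC50 from nonlinear curve fit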
# [2] = test system: MYC; test: MYC RPL19 QuantiGene assay in MV-4-11 cells; type: cell-based; settings: Homo sapiens, MV4-11, compound 4 hours
# Source text: MYC RPL19 QuantiGene assay in MV-4-11 Cells
# Sequence of CBP (Q92793 whole entry): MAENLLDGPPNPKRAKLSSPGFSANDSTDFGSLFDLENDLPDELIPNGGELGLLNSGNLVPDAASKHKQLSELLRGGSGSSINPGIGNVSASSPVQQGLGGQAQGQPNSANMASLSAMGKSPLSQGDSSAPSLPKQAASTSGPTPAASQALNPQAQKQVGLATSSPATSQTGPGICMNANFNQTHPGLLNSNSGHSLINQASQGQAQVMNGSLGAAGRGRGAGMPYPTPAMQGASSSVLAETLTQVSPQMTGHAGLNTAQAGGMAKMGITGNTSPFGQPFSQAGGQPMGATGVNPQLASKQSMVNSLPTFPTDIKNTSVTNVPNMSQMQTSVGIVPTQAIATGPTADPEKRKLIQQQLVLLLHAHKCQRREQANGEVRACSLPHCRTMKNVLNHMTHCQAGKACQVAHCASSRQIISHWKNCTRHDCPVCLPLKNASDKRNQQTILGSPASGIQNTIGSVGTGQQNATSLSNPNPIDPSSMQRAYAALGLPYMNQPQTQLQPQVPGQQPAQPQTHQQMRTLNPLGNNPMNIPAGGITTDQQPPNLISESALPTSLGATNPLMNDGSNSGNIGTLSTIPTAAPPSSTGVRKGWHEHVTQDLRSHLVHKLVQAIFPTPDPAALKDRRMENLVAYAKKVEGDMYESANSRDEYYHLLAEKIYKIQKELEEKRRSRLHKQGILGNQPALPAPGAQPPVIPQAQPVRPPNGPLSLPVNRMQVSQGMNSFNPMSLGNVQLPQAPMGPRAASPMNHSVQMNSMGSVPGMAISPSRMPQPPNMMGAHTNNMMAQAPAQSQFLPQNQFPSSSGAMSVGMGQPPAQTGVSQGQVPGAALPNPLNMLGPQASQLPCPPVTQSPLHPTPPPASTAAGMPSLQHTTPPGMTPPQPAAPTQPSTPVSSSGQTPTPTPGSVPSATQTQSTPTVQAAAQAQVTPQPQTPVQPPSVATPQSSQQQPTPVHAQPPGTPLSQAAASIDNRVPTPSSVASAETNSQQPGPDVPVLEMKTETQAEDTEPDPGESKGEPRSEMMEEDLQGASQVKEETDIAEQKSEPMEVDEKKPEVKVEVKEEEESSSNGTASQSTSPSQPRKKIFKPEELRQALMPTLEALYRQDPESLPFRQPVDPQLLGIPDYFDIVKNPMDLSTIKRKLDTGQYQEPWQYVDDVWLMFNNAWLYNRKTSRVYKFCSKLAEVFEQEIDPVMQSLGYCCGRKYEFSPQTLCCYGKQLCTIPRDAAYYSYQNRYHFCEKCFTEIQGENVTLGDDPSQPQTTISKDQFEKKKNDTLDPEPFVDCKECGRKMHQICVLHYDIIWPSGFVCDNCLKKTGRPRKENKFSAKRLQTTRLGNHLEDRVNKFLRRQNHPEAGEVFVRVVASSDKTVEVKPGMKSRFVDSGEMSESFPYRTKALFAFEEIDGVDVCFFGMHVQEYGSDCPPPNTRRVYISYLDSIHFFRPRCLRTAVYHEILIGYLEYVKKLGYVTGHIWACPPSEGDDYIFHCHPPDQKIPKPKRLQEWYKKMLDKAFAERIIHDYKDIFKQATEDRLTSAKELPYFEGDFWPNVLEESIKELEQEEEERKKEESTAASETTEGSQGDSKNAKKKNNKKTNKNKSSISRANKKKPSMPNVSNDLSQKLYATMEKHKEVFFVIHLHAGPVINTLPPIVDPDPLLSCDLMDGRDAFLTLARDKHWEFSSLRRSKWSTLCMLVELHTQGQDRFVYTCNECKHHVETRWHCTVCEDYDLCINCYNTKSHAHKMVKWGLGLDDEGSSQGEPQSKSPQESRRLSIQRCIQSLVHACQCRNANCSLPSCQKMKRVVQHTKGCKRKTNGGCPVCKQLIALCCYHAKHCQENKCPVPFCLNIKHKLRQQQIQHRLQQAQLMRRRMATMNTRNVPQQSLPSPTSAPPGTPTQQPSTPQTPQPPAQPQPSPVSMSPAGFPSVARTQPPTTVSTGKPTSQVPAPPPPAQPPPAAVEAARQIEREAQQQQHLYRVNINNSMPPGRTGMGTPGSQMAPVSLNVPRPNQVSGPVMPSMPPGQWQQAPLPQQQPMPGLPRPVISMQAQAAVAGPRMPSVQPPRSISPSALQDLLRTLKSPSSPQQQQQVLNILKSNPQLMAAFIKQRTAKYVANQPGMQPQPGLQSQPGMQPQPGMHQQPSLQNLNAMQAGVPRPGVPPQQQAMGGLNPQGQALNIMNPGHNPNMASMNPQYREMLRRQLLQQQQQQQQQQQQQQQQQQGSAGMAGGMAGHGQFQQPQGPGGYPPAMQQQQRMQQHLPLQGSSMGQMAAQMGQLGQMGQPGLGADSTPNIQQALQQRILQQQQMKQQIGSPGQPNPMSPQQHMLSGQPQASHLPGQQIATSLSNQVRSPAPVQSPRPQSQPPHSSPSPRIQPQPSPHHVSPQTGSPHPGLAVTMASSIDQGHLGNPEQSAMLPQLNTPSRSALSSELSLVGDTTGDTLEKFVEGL
Compound,IC50 [1] [nM],IC50 [2] [nM]
Cn1cc(-c2cc3c(cc2C(F)F)N(c2ccc4c(c2)n(C)c(=O)n4C)CCC3)cn1 [Example 18],19,1020
"Cn1cc(-c2cc3c(cc2C(F)F)N(c2cc(Cl)c4c(c2)n(C)c(=O)n4C)CCC3)cn1 [Example 33, 4-chloro-6-(7-(difluoromethyl)-6-(1-methyl-1H-pyrazol-4-yl)-3,4-dihydroquinolin-1(2H)-yl)-1,3-dimethyl-1H-benzo[d]imidazol-2(3H)-one]",42,1170
Cn1cc(-c2cc3c(cc2C(F)F)N(c2ccc4c(c2F)n(C)c(=O)n4C)CCC3)cn1 [Example 34],> 4900,> 10000
Cn1cc(-c2cc3c(cc2C(F)F)N(c2cc4c(cc2F)n(C)c(=O)n4C)CCC3)cn1 [Example 35],23,428
"Cc1cc(N2CCCc3cc(-c4cnn(C)c4)c(C(F)F)cc32)cc2c1n(C)c(=O)n2C [Example 36, 6-(7-(difluoromethyl)-6-(1-methyl-1H-pyrazol-4-yl)-3,4-dihydroquinolin-1(2H)-yl)-1,3,4-trimethyl-1H-benzo[d]imidazol-2(3H)-one]",14,1380
CCc1cc(N2CCCc3cc(-c4cnn(C)c4)c(C(F)F)cc32)cc2c1n(C)c(=O)n2C [Example 37],11,281
Cn1cc(-c2cc3c(cc2C(F)F)N(c2cc(C4CCC4)c4c(c2)n(C)c(=O)n4C)CCC3)cn1 [Example 39],12,208
Cc1c(N2CCCc3cc(-c4cnn(C)c4)c(C(F)F)cc32)ccc2c1n(C)c(=O)n2C [Example 40],72,1940
"CN(C)c1cc(N2CCCc3cc(-c4cnn(C)c4)c(C(F)F)cc32)cc2c1n(C)c(=O)n2C [Example 41, 6-(7-(difluoromethyl)-6-(1-methyl-1H-pyrazol-4-yl)-3,4-dihydroquinolin-1(2H)-yl)-4-(dimethylamino)-1,3-dimethyl-1H-benzo[d]imidazol-2(3H)-one]",5,136
Cn1cc(-c2cc3c(cc2C(F)F)N(c2cc(N4CCCC4)c4c(c2)n(C)c(=O)n4C)CCC3)cn1 [Example 43],6,115
Cn1cc(-c2cc3c(cc2C(F)F)N(c2cc(N4CCOCC4)c4c(c2)n(C)c(=O)n4C)CCC3)cn1 [Example 45],4,11
Cc1cc2c(cc1N1CCCc3cc(-c4cnn(C)c4)c(C(F)F)cc31)n(C)c(=O)n2C [Example 46],13,413
CCc1cc2c(cc1N1CCCc3cc(-c4cnn(C)c4)c(C(F)F)cc31)n(C)c(=O)n2C [Example 47],39,1110
"CNC(=O)c1cn(C)c2ccc(N3CCCc4cc(-c5cnn(C)c5)c(C(F)F)cc43)cc12 [Example 50, 5-(7-(difluoromethyl)-6-(1-methyl-1H-pyrazol-4-yl)-3,4-dihydroquinolin-1(2H)-yl)-N,1-dimethyl-1H-indole-3-carboxamide]",9,496
"CNC(=O)c1c[nH]c2ccc(N3CCCc4cc(-c5cnn(C)c5)c(C(F)F)cc43)cc12 [Example 52, 5-(7-(difluoromethyl)-6-(1-methyl-1H-pyrazol-4-yl)-3,4-dihydroquinolin-1(2H)-yl)-N-methyl-1H-indole-3-carboxamide]",9,2180
"CNC(=O)c1cn(C)c2c(Cl)cc(N3CCCc4cc(-c5cnn(C)c5)c(C(F)F)cc43)cc12 [Example 54, 7-chloro-5-(7-(difluoromethyl)-6-(1-methyl-1H-pyrazol-4-yl)-3,4-dihydroquinolin-1(2H)-yl)-N,1-dimethyl-1H-indole-3-carboxamide]",59,2290
CNC(=O)c1cn(C)c2ccc(N3CCCc4cc(-c5cnn(C)c5)c(C(F)F)cc43)c(F)c12 [Example 55],4,115
CNC(=O)c1cn(C)c2cc(F)c(N3CCCc4cc(-c5cnn(C)c5)c(C(F)F)cc43)cc12 [Example 56],10,4040
CNC(=O)c1cn(C)c2cc(C)c(N3CCCc4cc(-c5cnn(C)c5)c(C(F)F)cc43)cc12 [Example 57],9,302
CNC(=O)c1cn(C)c2ccc(N3CCCc4cc(-c5cnn(C)c5)c(C(F)F)cc43)nc12 [Example 58],9,181

Compound,IC50 [1] [nM],IC50 [2] [nM]
CNC(=O)c1cn(C)c2cnc(N3CCCc4cc(-c5cnn(C)c5)c(C(F)F)cc43)cc12 [Example 59],6,205
CNC(=O)c1cn(C)c2c(C)cc(N3CCCc4cc(-c5cnn(C)c5)c(C(F)F)cc43)nc12 [Example 60],9,108
"CNC(=O)c1c[nH]c2c(C(C)C)cc(N3CCCc4cc(-c5cnn(C)c5)c(C(F)F)cc43)cc12 [Example 62, 5-(7-(difluoromethyl)-6-(1-methyl-1H-pyrazol-4-yl)-3,4-dihydroquinolin-1(2H)-yl)-7-isopropyl-N-methyl-1H-indole-3-carboxamide]",12,84
CNC(=O)c1c[nH]c2c(C(C)C)nc(N3CCCc4cc(-c5cnn(C)c5)c(C(F)F)cc43)cc12 [Example 63],2,53
"CNC(=O)c1c[nH]c2c(C)nc(N3CCCc4cc(-c5cnn(C)c5)c(C(F)F)cc43)cc12 [Example 64, 5-(7-(difluoromethyl)-6-(1-methyl-1H-pyrazol-4-yl)-3,4-dihydroquinolin-1(2H)-yl)-N,7-dimethyl-1H-pyrrolo[2,3-c]pyridine-3-carboxamide]",2,143
CNC(=O)c1c[nH]c2ccc(N3CCCc4cc(-c5cnn(C)c5)c(C(F)F)cc43)nc12 [Example 65],5,150
CNC(=O)c1c[nH]c2c(C)cc(N3CCCc4cc(-c5cnn(C)c5)c(C(F)F)cc43)nc12 [Example 66],4,46
CNC(=O)c1c[nH]c2cnc(N3CCCc4cc(-c5cnn(C)c5)c(C(F)F)cc43)cc12 [Example 67],5,358
CNC(=O)c1c[nH]c2ncc(N3CCCc4cc(-c5cnn(C)c5)c(C(F)F)cc43)cc12 [Example 68],15,4380
CNC(=O)c1c[nH]c2ncc(N3CCCc4cc(-c5cnn(C)c5)c(C(F)F)cc43)nc12 [Example 69],4,47
"CCC(=O)N1CCOc2ccc(N3CCCc4cc(-c5cnn(C)c5)c(C(F)F)cc43)cc2C1 [Example 78, 1-(7-(7-(difluoromethyl)-6-(1-methyl-1H-pyrazol-4-yl)-3,4-dihydroquinolin-1(2H)-yl)-2,3-dihydrobenzo[f][1,4]oxazepin-4(5H)-yl)propan-1-one]",22,780
"CNC(=O)c1ccc2c(c1)c(N1CCCc3cc(-c4cnn(C)c4)c(C(F)F)cc31)nn2C1CCOCC1 [Example 83, 3-(7-(difluoromethyl)-6-(1-methyl-1H-pyrazol-4-yl)-3,4-dihydroquinolin-1(2H)-yl)-N-methyl-1-(tetrahydro-2H-pyran-4-yl)-1H-indazole-5-carboxamide]",9,177
"CN1C(=O)Cc2ccc(N3CCCc4cc(-c5cnn(C)c5)c(C(F)F)cc43)cc21 [Example 90, 6-[7-(difluoromethyl)-6-(1-methylpyrazol-4-yl)-3,4-dihydro-2H-quinolin-1-yl]-1-methyl-indolin-2-one]",32,96
"CC(C)c1cc(N2CCCc3cc(-c4cnn(C)c4)c(C(F)F)cc32)cc2c1n(C)c(=O)n2C [Example 96, 6-(7-(difluoromethyl)-6-(1-methyl-1H-pyrazol-4-yl)-3,4-dihydroquinolin-1(2H)-yl)-4-isopropyl-1,3-dimethyl-1H-benzo[d]imidazol-2(3H)-one]",9,220
"Cn1cc(-c2cc3c(cc2C(F)F)N(c2cc(C4CCOCC4)c4c(c2)n(C)c(=O)n4C)CCC3)cn1 [Example 97, 6-(7-(difluoromethyl)-6-(1-methyl-1H-pyrazol-4-yl)-3,4-dihydroquinolin-1(2H)-yl)-1,3-dimethyl-4-(tetrahydro-2H-pyran-4-yl)-1H-benzo[d]imidazol-2(3H)-one]",4,58
"Cn1cc(-c2cc3c(cc2C(F)F)N(c2cc(C4=CC[S+]([O-])CC4)c4c(c2)n(C)c(=O)n4C)CCC3)cn1 (centres unmarked) [Example 98, 6-(7-(difluoromethyl)-6-(1-methyl-1H-pyrazol-4-yl)-3,4-dihydroquinolin-1(2H)-yl)-1,3-dimethyl-4-(1-oxido-3,6-dihydro-2H-thiopyran-4-yl)-1H-benzo[d]imidazol-2(3H)-one]",4,86
"COc1cc(N2CCCc3cc(-c4cnn(C)c4)c(C(F)F)cc32)cc2c1n(C)c(=O)n2C [Example 100, 6-(7-(difluoromethyl)-6-(1-methyl-1H-pyrazol-4-yl)-3,4-dihydroquinolin-1(2H)-yl)-4-methoxy-1,3-dimethyl-1H-benzo[d]imidazol-2(3H)-one]",10,164
"CNC(=O)c1cn(C)c2c(C)cc(N3CCCc4cc(-c5cnn(C)c5)c(C(F)F)cc43)cc12 [Example 104, 5-(7-(difluoromethyl)-6-(1-methyl-1H-pyrazol-4-yl)-3,4-dihydroquinolin-1(2H)-yl)-N,1,7-trimethyl-1H-indole-3-carboxamide]",16,377
"CNC(=O)c1cn(C)c2c(C3CCOCC3)cc(N3CCCc4cc(-c5cnn(C)c5)c(C(F)F)cc43)cc12 [Example 105, 5-(7-(difluoromethyl)-6-(1-methyl-1H-pyrazol-4-yl)-3,4-dihydroquinolin-1(2H)-yl)-N,1-dimethyl-7-(tetrahydro-2H-pyran-4-yl)-1H-indole-3-carboxamide]",11,86
"C=C(C)c1cc(N2CCCc3cc(-c4cnn(C)c4)c(C(F)F)cc32)cc2c(C(=O)NC)cn(C)c12 [Example 107, 5-(7-(difluoromethyl)-6-(1-methyl-1H-pyrazol-4-yl)-3,4-dihydroquinolin-1(2H)-yl)-N,1-dimethyl-7-(prop-1-en-2-yl)-1H-indole-3-carboxamide]",16,147
